The values that follow come from patent publication US10781211B2, “Spirocycle compounds and methods of making and using same” (Lundbeck La Jolla Research Center, Inc., priority 2016, dated 2020).

Format in all cases: in vivo
Common to all, as to details: 5 mg/kg oral gavage

Experiment [1] deals with MAGL (Mus musculus (Mouse), UniProt O35678). Kind of experiment: Mouse brain proteomes from inhibitor treated mice (oral gavage, sacrifice 4 h after administration, ABPP analysis). The procedure:
(§1) Preparation of Mouse Brain Proteomes from Inhibitor Treated Mice.
(§2) Inhibitors were administered to wild-type C57Bl/6J by oral gavage in a vehicle, e.g. PEG400/Ethanol/PBS (7/2/1). Each animal was sacrificed 4 h following administration and brain proteomes were prepared and analyzed according to previously established methods (See Niphakis, M. J., et al. (2011) ACS Chem. Neurosci. and Long, J. Z., et al. Nat. Chem. Biol. 5:37-44). Data from this assay is shown in Table 2 (% inhibition at 5 mg/kg).

Experiment [2] deals with FAAH (Mus musculus (Mouse), UniProt O08914). Kind of experiment: Mouse brain proteomes from inhibitor treated mice (oral gavage, sacrifice 4 h after administration, ABPP analysis), FAAH. The method, then:
as §1, §2

Experiment [3] addresses ABHD6 (Mus musculus (Mouse), UniProt Q8R2Y0). The experiment is described as follows: Mouse brain proteomes from inhibitor treated mice (oral gavage, sacrifice 4 h after administration, ABPP analysis), ABHD6. The procedure:
as §1, §2

ABHD6, sequence (Q8R2Y0 whole entry): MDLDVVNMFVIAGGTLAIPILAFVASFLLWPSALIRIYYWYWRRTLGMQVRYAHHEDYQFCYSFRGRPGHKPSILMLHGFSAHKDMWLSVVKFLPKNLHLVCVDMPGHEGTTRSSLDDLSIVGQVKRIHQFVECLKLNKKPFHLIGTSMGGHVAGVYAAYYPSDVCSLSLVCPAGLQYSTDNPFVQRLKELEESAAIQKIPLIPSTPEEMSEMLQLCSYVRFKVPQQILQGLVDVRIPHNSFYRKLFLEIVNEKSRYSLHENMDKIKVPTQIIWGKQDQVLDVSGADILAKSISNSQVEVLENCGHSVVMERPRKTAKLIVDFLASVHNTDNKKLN
FAAH, sequence (O08914 whole entry): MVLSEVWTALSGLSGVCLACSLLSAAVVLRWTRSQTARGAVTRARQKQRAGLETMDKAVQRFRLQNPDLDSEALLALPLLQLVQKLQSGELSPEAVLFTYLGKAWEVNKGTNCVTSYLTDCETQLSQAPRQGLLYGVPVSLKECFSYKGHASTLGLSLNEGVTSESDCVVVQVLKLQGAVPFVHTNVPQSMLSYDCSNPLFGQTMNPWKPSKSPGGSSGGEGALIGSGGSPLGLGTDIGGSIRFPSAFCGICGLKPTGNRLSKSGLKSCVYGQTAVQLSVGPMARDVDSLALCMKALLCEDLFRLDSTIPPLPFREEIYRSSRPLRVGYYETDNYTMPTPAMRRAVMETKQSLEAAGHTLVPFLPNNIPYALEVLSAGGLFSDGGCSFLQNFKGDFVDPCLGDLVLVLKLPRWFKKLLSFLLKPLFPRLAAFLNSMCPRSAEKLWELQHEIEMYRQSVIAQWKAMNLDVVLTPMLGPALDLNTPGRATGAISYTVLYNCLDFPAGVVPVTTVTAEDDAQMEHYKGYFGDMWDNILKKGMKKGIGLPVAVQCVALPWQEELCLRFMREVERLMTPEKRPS
MAGL, sequence (O35678 whole entry): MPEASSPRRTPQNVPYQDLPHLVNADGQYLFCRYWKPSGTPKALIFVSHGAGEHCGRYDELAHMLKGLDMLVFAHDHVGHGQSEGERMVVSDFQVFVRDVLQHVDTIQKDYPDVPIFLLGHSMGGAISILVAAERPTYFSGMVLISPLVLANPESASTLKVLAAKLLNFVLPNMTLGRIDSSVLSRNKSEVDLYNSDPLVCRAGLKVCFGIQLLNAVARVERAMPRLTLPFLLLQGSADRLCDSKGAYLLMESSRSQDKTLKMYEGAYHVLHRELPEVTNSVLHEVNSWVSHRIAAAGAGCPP

On to `O=C(OC(C(F)(F)F)C(F)(F)F)N1CCC2(CCCN2Cc2ccc(Cl)cc2)CC1` [Example 62, 1,1,1,3,3,3-Hexafluoropropan-2-yl 1-(4-chlorobenzyl)-1,8-diazaspiro[4.5]decane-8-carboxylate], for which the “MAGL % Inh 5 mg/kg (mouse)” value in experiment [1] is listed as “### (### is ≥ 75%)”.

For the compound `O=C(OC(C(F)(F)F)C(F)(F)F)N1CCC2(CCCN2Cc2ccc3c(c2)COC3)CC1` [Example 151, 1,1,1,3,3,3-Hexafluoropropan-2-yl 1-((1,3-dihydroisobenzofuran-5-yl)methyl)-1,8-diazaspiro[4.5]decane-8-carboxylate], the “MAGL % Inh 5 mg/kg (mouse)” value in experiment [1] was “### (### is ≥ 75%)”.

Take `O=C(OC(C(F)(F)F)C(F)(F)F)N1CCC2(CCCN2Cc2ccc(C(F)(F)F)cc2Oc2cccnc2)CC1` [Example 173, 1,1,1,3,3,3-Hexafluoropropan-2-yl 1-(2-(pyridin-3-yloxy)-4-(trifluoromethyl)benzyl)-1,8-diazaspiro[4.5]decane-8-carboxylate]: the “FAAH % Inh 5 mg/kg (mouse)” value in experiment [2] is “# (# is < 25%)”. Besides, the “ABHD6 % Inh 5 mg/kg (mouse)” value in experiment [3] is listed as “# (# is < 25%)”.

On to `CS(=O)(=O)C1CCN(c2cc(C(F)(F)F)ccc2CN2CCCC23CCN(C(=O)OC(C(F)(F)F)C(F)(F)F)CC3)C1` (centres unmarked) [Example 193, 1,1,1,3,3,3-Hexafluoropropan-2-yl 1-(2-(3-(methylsulfonyl)pyrrolidin-1-yl)-4-(trifluoromethyl)benzyl)-1,8-diazaspiro[4.5]decane-8-carboxylate], for which the “FAAH % Inh 5 mg/kg (mouse)” value in experiment [2] is “# (# is < 25%)”. The “ABHD6 % Inh 5 mg/kg (mouse)” value in experiment [3] is on record as “# (# is < 25%)”.

Turning to `O=C(O)C1COCCN1c1cc(CN2CCCC23CCN(C(=O)OC(C(F)(F)F)C(F)(F)F)CC3)cc(C(F)(F)F)c1` (centres unmarked) [Example 200], in experiment [2], the “FAAH % Inh 5 mg/kg (mouse)” value is “# (# is < 25%)”. Also, the “ABHD6 % Inh 5 mg/kg (mouse)” value in experiment [3] is “# (# is < 25%)”.

On to `N#Cc1ccc(CN2CCCC23CCN(C(=O)OC(C(F)(F)F)C(F)(F)F)CC3)c(N2CCC(C(=O)O)CC2)c1` [Example 249], for which the “FAAH % Inh 5 mg/kg (mouse)” value in experiment [2] is reported as “# (# is < 25%)”. Also, the “ABHD6 % Inh 5 mg/kg (mouse)” value in experiment [3] was “# (# is < 25%)”.

As to `CCN1CCN(c2cc(C(F)(F)F)ccc2CN2CCCC23CCN(C(=O)OC(C(F)(F)F)C(F)(F)F)CC3)CC1` [Example 87, 1,1,1,3,3,3-Hexafluoropropan-2-yl 1-(2-(4-ethylpiperazin-1-yl)-4-(trifluoromethyl)benzyl)-1,8-diazaspiro[4.5]decane-8-carboxylate], in experiment [2], the “FAAH % Inh 5 mg/kg (mouse)” value was “# (# is < 25%)”. Besides, in experiment [3], the “ABHD6 % Inh 5 mg/kg (mouse)” value is listed as “# (# is < 25%)”.

On to `O=C(O)C1CCN(Cc2cc(CN3CCCC34CCN(C(=O)OC(C(F)(F)F)C(F)(F)F)CC4)cc(OC(F)(F)F)c2)C1` (centres unmarked) [Example 270], for which the “FAAH % Inh 5 mg/kg (mouse)” value in experiment [2] is on record as “# (# is < 25%)”. For the same compound, in experiment [3], the “ABHD6 % Inh 5 mg/kg (mouse)” value is “# (# is < 25%)”.

With `O=C(O)C1CCN(Cc2cc(CN3CCCC34CCN(C(=O)OC(C(F)(F)F)C(F)(F)F)CC4)cc(C(F)(F)F)c2)C1` (centres unmarked) [Example 253], in experiment [2], the “FAAH % Inh 5 mg/kg (mouse)” value is on record as “# (# is < 25%)”. The “ABHD6 % Inh 5 mg/kg (mouse)” value in experiment [3] is reported as “# (# is < 25%)”.

As to `O=C(O)C1CCN(Cc2cc(Cl)cc(CN3CCCC34CCN(C(=O)OC(C(F)(F)F)C(F)(F)F)CC4)c2)CC1` [Example 194, 1-(3-Chloro-5-((8-(((1,1,1,3,3,3-hexafluoropropan-2-yl)oxy)carbonyl)-1,8-diazaspiro[4.5]decan-1-yl)methyl)benzyl)piperidine-4-carboxylic acid], the “FAAH % Inh 5 mg/kg (mouse)” value in experiment [2] is on record as “# (# is < 25%)”. In addition, the “ABHD6 % Inh 5 mg/kg (mouse)” value in experiment [3] is “# (# is < 25%)”.

As to `CC(=O)NC1CCN(c2cc(Cl)ccc2CN2CCCC23CCN(C(=O)OC(C(F)(F)F)C(F)(F)F)CC3)CC1` [Example 104, 1,1,1,3,3,3-Hexafluoropropan-2-yl 1-(2-(4-acetamidopiperidin-1-yl)-4-chlorobenzyl)-1,8-diazaspiro[4.5]decane-8-carboxylate], the “FAAH % Inh 5 mg/kg (mouse)” value in experiment [2] is listed as “# (# is < 25%)”. Besides, the “ABHD6 % Inh 5 mg/kg (mouse)” value in experiment [3] is given as “# (# is < 25%)”.

For the compound `CN1CCN(c2c(Cl)cccc2CN2CC3(CCN(C(=O)OC(C(F)(F)F)C(F)(F)F)CC3)CC2(C)C)CC1` [Example 189, 1,1,1,3,3,3-Hexafluoropropan-2-yl 2-(3-chloro-2-(4-methylpiperazin-1-yl)benzyl)-3,3-dimethyl-2,8-diazaspiro[4.5]decane-8-carboxylate], the “FAAH % Inh 5 mg/kg (mouse)” value in experiment [2] is reported as “# (# is < 25%)”. For the same compound, the “ABHD6 % Inh 5 mg/kg (mouse)” value in experiment [3] is given as “# (# is < 25%)”.

Consider `O=C(OC(C(F)(F)F)C(F)(F)F)N1CCC2(CCCN2Cc2cc(OC3CCS(=O)(=O)CC3)cc(C(F)(F)F)c2)CC1` [Example 176, 1,1,1,3,3,3-Hexafluoropropan-2-yl 1-(3-((1,1-dioxidotetrahydro-2H-thiopyran-4-yl)oxy)-5-(trifluoromethyl)benzyl)-1,8-diazaspiro[4.5]decane-8-carboxylate], for which, in experiment [2], the “FAAH % Inh 5 mg/kg (mouse)” value was “# (# is < 25%)”. Besides, the “ABHD6 % Inh 5 mg/kg (mouse)” value in experiment [3] is given as “# (# is < 25%)”.

On to `COc1ccc(F)cc1CN1CCCC12CCN(C(=O)OC(C(F)(F)F)C(F)(F)F)CC2` [Example 8, 1,1,1,3,3,3-Hexafluoropropan-2-yl 1-(5-fluoro-2-methoxybenzyl)-1,8-diazaspiro[4.5]decane-8-carboxylate], for which, in experiment [1], the “MAGL % Inh 5 mg/kg (mouse)” value was “### (### is ≥ 75%)”.

`CC1(C(=O)O)CCCN(c2cc(C(F)(F)F)ccc2CN2CCC3(CCN(C(=O)OC(C(F)(F)F)C(F)(F)F)CC3)C2)C1` (centres unmarked) [Example 216]: the “FAAH % Inh 5 mg/kg (mouse)” value in experiment [2] is on record as “# (# is < 25%)”. The “ABHD6 % Inh 5 mg/kg (mouse)” value in experiment [3] is “# (# is < 25%)”.

Consider `O=C(O)C1CCN(Cc2cc(C(F)(F)F)ccc2CN2CCCC23CCN(C(=O)OC(C(F)(F)F)C(F)(F)F)CC3)C1` (centres unmarked) [Example 262], for which the “FAAH % Inh 5 mg/kg (mouse)” value in experiment [2] is “# (# is < 25%)”. Further, the “ABHD6 % Inh 5 mg/kg (mouse)” value in experiment [3] was “# (# is < 25%)”.

As to `O=C(OC(C(F)(F)F)C(F)(F)F)N1CCC2(CCCN2Cc2ccc(C(F)(F)F)cc2N2CCN(CCF)CC2)CC1` [Example 20, 1,1,1,3,3,3-Hexafluoropropan-2-yl 1-(2-(4-(2-fluoroethyl)piperazin-1-yl)-4-(trifluoromethyl)benzyl)-1,8-diazaspiro[4.5]decane-8-carboxylate], the “FAAH % Inh 5 mg/kg (mouse)” value in experiment [2] is listed as “# (# is < 25%)”. The “ABHD6 % Inh 5 mg/kg (mouse)” value in experiment [3] is “# (# is < 25%)”.

Consider `O=C(O)C1CCN(Cc2cc(CN3CCCC34CCN(C(=O)OC(C(F)(F)F)C(F)(F)F)CC4)cc(OC(F)(F)F)c2)CC1` [Example 269], for which the “FAAH % Inh 5 mg/kg (mouse)” value in experiment [2] is “# (# is < 25%)”. The “ABHD6 % Inh 5 mg/kg (mouse)” value in experiment [3] was “# (# is < 25%)”.

As for `CC1(C)CC2(CCN(C(=O)OC(C(F)(F)F)C(F)(F)F)CC2)CN1Cc1ccc(C(F)(F)F)cc1N1CCOCC1` [Example 51, 1,1,1,3,3,3-Hexafluoropropan-2-yl 3,3-dimethyl-2-(2-morpholino-4-(trifluoromethyl)benzyl)-2,8-diazaspiro[4.5]decane-8-carboxylate], the “FAAH % Inh 5 mg/kg (mouse)” value in experiment [2] was “# (# is < 25%)”. In experiment [3], the “ABHD6 % Inh 5 mg/kg (mouse)” value is reported as “# (# is < 25%)”.

On to `O=C(COc1cc(CN2CCCC23CCN(C(=O)OC(C(F)(F)F)C(F)(F)F)CC3)cc(C(F)(F)F)c1)N1CCCC1` [Example 168, 1,1,1,3,3,3-Hexafluoropropan-2-yl 1-(3-(2-oxo-2-(pyrrolidin-1-yl)ethoxy)-5-(trifluoromethyl)benzyl)-1,8-diazaspiro[4.5]decane-8-carboxylate], for which, in experiment [2], the “FAAH % Inh 5 mg/kg (mouse)” value is on record as “# (# is < 25%)”. Moreover, the “ABHD6 % Inh 5 mg/kg (mouse)” value in experiment [3] is reported as “# (# is < 25%)”.

As for `O=C(OC(C(F)(F)F)C(F)(F)F)N1CCC2(CCCN2Cc2ccc(C(F)(F)F)cc2N2CCC(F)(F)CC2)CC1` [Example 90, 1,1,1,3,3,3-Hexafluoropropan-2-yl 1-(2-(4,4-difluoropiperidin-1-yl)-4-(trifluoromethyl)benzyl)-1,8-diazaspiro[4.5]decane-8-carboxylate], in experiment [2], the “FAAH % Inh 5 mg/kg (mouse)” value is recorded as “# (# is < 25%)”. In addition, the “ABHD6 % Inh 5 mg/kg (mouse)” value in experiment [3] is given as “# (# is < 25%)”.

Consider `CS(=O)(=O)N1CCN(c2cc(CN3CCCC34CCN(C(=O)OC(C(F)(F)F)C(F)(F)F)CC4)cc(C(F)(F)F)c2)CC1` [Example 43, 1,1,1,3,3,3-Hexafluoropropan-2-yl 1-(3-(4-(methylsulfonyl)piperazin-1-yl)-5-(trifluoromethyl)benzyl)-1,8-diazaspiro[4.5]decane-8-carboxylate], for which, in experiment [2], the “FAAH % Inh 5 mg/kg (mouse)” value is “# (# is < 25%)”. In addition, in experiment [3], the “ABHD6 % Inh 5 mg/kg (mouse)” value is “# (# is < 25%)”.

Turning to `O=C(OC(C(F)(F)F)C(F)(F)F)N1CCC2(CCCN2Cc2cc(Oc3cccnc3)cc(C(F)(F)F)c2)CC1` [Example 174, 1,1,1,3,3,3-Hexafluoropropan-2-yl 1-(3-(pyridin-3-yloxy)-5-(trifluoromethyl)benzyl)-1,8-diazaspiro[4.5]decane-8-carboxylate], in experiment [2], the “FAAH % Inh 5 mg/kg (mouse)” value is recorded as “# (# is < 25%)”. For the same compound, the “ABHD6 % Inh 5 mg/kg (mouse)” value in experiment [3] is reported as “# (# is < 25%)”.

For `CC(=O)N1CCN(c2cc(C(F)(F)F)ccc2CN2CCCC23CCN(C(=O)OC(C(F)(F)F)C(F)(F)F)CC3)CC1` [Example 88, 1,1,1,3,3,3-Hexafluoropropan-2-yl 1-(2-(4-acetylpiperazin-1-yl)-4-(trifluoromethyl)benzyl)-1,8-diazaspiro[4.5]decane-8-carboxylate], in experiment [2], the “FAAH % Inh 5 mg/kg (mouse)” value is “# (# is < 25%)”. In addition, the “ABHD6 % Inh 5 mg/kg (mouse)” value in experiment [3] is reported as “# (# is < 25%)”.

Take `O=C(OC(C(F)(F)F)C(F)(F)F)N1CCC2(CCN(Cc3ccc(Cl)cc3N3CC4COCC4C3)C2)CC1` (centres unmarked) [Example 25, 1,1,1,3,3,3-Hexafluoropropan-2-yl 2-(4-chloro-2-(tetrahydro-1H-furo[3,4-c]pyrrol-5(3H)-yl)benzyl)-2,8-diazaspiro[4.5]decane-8-carboxylate]: the “FAAH % Inh 5 mg/kg (mouse)” value in experiment [2] is reported as “# (# is < 25%)”. In experiment [3], the “ABHD6 % Inh 5 mg/kg (mouse)” value is “# (# is < 25%)”.
